Assay results taken from ChEMBL document CHEMBL1201862, “PubChem BioAssay data set” (2004).
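Step 1: Grow cells in 96-well plates. Step 2: Expose to compound for 48 hours at 5 concentrations. Step 3: Interpolate endpoints linearly; if unreached, use highest concentration. Here, GI50 denotes the concentration required for 50% inhibition of growth.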 Activity calls are given as the source filed them. Rule as the data show it: active = GI50 up to about 1.1 µM and inactive = higher.

Assays:
Test in all cases: inhibition of tumour cell growth, NCI panel, 48 h
HOP-18 = tested on: HOP-18
EKVX = tested on: EKVX
MOLT-4 = tested on: MOLT-4
XF498 = tested on: XF498
DMS-114 = tested on: DMS-114
NCI-H522 = tested on: NCI-H522
Malme-3M = tested on: Malme-3M
OVCAR-4 = tested on: OVCAR-4
CAKI-1 = tested on: CAKI-1
UACC-62 = tested on: UACC-62
SK-MEL-28 = tested on: SK-MEL-28
MDA-MB-231 = tested on: MDA-MB-231
UACC-257 = tested on: UACC-257
LXFL 529 = tested on: LXFL 529
IGROV-1 = tested on: IGROV-1
LOX IMVI = tested on: LOX IMVI
SK-MEL-2 = tested on: SK-MEL-2
SNB-75 = tested on: SNB-75
HCT-15 = tested on: HCT-15
RXF 631 = tested on: RXF 631
SW-620 = tested on: SW-620
DMS-273 = tested on: DMS-273
T47D = tested on: T47D
NCI/ADR-RES = tested on: NCI/ADR-RES
HT-29 = tested on: HT-29
HCT-116 = tested on: HCT-116
DU-145 = tested on: DU-145
RXF 393 = tested on: RXF 393
NCI-H460 = tested on: NCI-H460
SNB-19 = tested on: SNB-19
SK-MEL-5 = tested on: SK-MEL-5
DLD-1 = tested on: DLD-1
SF-539 = tested on: SF-539
U-251 = tested on: U-251
NCI-H226 = tested on: NCI-H226
COLO 205 = tested on: COLO 205
OVCAR-3 = tested on: OVCAR-3
M14 = tested on: M14
MCF7 = tested on: MCF7
786-0 = tested on: 786-0
UO-31 = tested on: UO-31
CCRF-CEM = tested on: CCRF-CEM
HL-60 = tested on: HL-60
ACHN = tested on: ACHN
M19-MEL = tested on: M19-MEL
MDA-MB-435 = tested on: MDA-MB-435
SF-295 = tested on: SF-295
K562 = tested on: K562
TK-10 = tested on: TK-10
HOP-92 = tested on: HOP-92
Hs-578T = tested on: Hs-578T
RPMI-8226 = tested on: RPMI-8226
A498 = tested on: A498
SR = tested on: SR
KM12 = tested on: KM12
SK-OV-3 = tested on: SK-OV-3
SN12C = tested on: SN12C
MDA-N = tested on: MDA-N
HOP-62 = tested on: HOP-62
NCI-H23 = tested on: NCI-H23
SF-268 = tested on: SF-268
HCC 2998 = tested on: HCC 2998
OVCAR-5 = tested on: OVCAR-5
A549 = tested on: A549
BT-549 = tested on: BT-549
SNB-78 = tested on: SNB-78
OVCAR-8 = tested on: OVCAR-8
PC-3 = tested on: PC-3

Q: For CCCCC1NC=Nc2c1ccc1c2[nH]c2ccccc21 (stereo unspecified), which GI50 (HOP-18) is on record?
A: 10.2 µM (inactive)

Q: What about the GI50 (EKVX) of the same compound?
A: 3.8 µM (inactive)

Q: What about the GI50 (MOLT-4) of the same compound?
A: 2.05 µM (inactive)

Q: What about the GI50 (XF498) of the same compound?
A: 1.89 µM (inactive)

Q: And the GI50 (DMS-114)?
A: 1.76 µM (inactive)

Q: And the GI50 (NCI-H522)?
A: 1.84 µM (inactive)

Q: What about the GI50 (Malme-3M) of the same compound?
A: 5.33 µM (inactive)

Q: And the GI50 (OVCAR-4)?
A: 2.7 µM (inactive)

Q: What about the GI50 (CAKI-1) of the same compound?
A: 3.77 µM (inactive)

Q: And the GI50 (UACC-62)?
A: 4.27 µM (inactive)

Q: And the GI50 (SK-MEL-28)?
A: 10.3 µM (inactive)

Q: What about the GI50 (MDA-MB-231) of the same compound?
A: 1.73 µM (inactive)

Q: And the GI50 (UACC-257)?
A: 1.75 µM (inactive)

Q: And the GI50 (LXFL 529)?
A: 1.88 µM (inactive)

Q: What about the GI50 (IGROV-1) of the same compound?
A: 3.08 µM (inactive)

Q: What about the GI50 (LOX IMVI) of the same compound?
A: 1.94 µM (inactive)

Q: And the GI50 (SK-MEL-2)?
A: 3.82 µM (inactive)

Q: And the GI50 (SNB-75)?
A: 4.02 µM (inactive)

Q: What about the GI50 (HCT-15) of the same compound?
A: 2.39 µM

Q: What about the GI50 (RXF 631) of the same compound?
A: 2.6 µM (inactive)

Q: And the GI50 (SW-620)?
A: 1.95 µM (inactive)

Q: What about the GI50 (DMS-273) of the same compound?
A: 1.7 µM (inactive)

Q: And the GI50 (T47D)?
A: 1.45 µM (inactive)

Q: And the GI50 (NCI/ADR-RES)?
A: 1.95 µM (inactive)

Q: And the GI50 (HT-29)?
A: 1.86 µM (inactive)

Q: What about the GI50 (HCT-116) of the same compound?
A: 1.91 µM (inactive)

Q: What about the GI50 (DU-145) of the same compound?
A: 2.6 µM (inactive)

Q: And the GI50 (RXF 393)?
A: 0.713 µM (active)

Q: And the GI50 (NCI-H460)?
A: 2.17 µM (inactive)

Q: What about the GI50 (SNB-19) of the same compound?
A: 4.58 µM (inactive)

Q: What about the GI50 (SK-MEL-5) of the same compound?
A: 1.58 µM (inactive)

Q: And the GI50 (DLD-1)?
A: 2.47 µM (inactive)

Q: What about the GI50 (SF-539) of the same compound?
A: 3.05 µM (inactive)

Q: And the GI50 (U-251)?
A: 2.95 µM (inactive)

Q: What about the GI50 (NCI-H226) of the same compound?
A: 7.62 µM (inactive)

Q: What about the GI50 (COLO 205) of the same compound?
A: 1.79 µM (inactive)

Q: And the GI50 (OVCAR-3)?
A: 6.1 µM (inactive)

Q: And the GI50 (M14)?
A: 2.41 µM (inactive)

Q: And the GI50 (MCF7)?
A: 1.55 µM (inactive)

Q: And the GI50 (786-0)?
A: 1.79 µM (inactive)

Q: And the GI50 (UO-31)?
A: 10.3 µM (inactive)

Q: And the GI50 (CCRF-CEM)?
A: 1.67 µM (inactive)

Q: What about the GI50 (HL-60) of the same compound?
A: 1.78 µM (inactive)

Q: What about the GI50 (ACHN) of the same compound?
A: 3.61 µM (inactive)

Q: What about the GI50 (M19-MEL) of the same compound?
A: 3.26 µM (inactive)

Q: What about the GI50 (MDA-MB-435) of the same compound?
A: 1.88 µM (inactive)

Q: And the GI50 (SF-295)?
A: 2.48 µM (inactive)

Q: What about the GI50 (K562) of the same compound?
A: 1.87 µM (inactive)

Q: And the GI50 (TK-10)?
A: 5.71 µM (inactive)

Q: And the GI50 (HOP-92)?
A: 3.94 µM (inactive)

Q: What about the GI50 (Hs-578T) of the same compound?
A: 2.14 µM (inactive)

Q: And the GI50 (RPMI-8226)?
A: 1.84 µM (inactive)

Q: What about the GI50 (A498) of the same compound?
A: 14.4 µM (inactive)

Q: What about the GI50 (SR) of the same compound?
A: 1.28 µM (inactive)

Q: And the GI50 (KM12)?
A: 5.82 µM (inactive)

Q: What about the GI50 (SK-OV-3) of the same compound?
A: 5.87 µM (inactive)

Q: And the GI50 (SN12C)?
A: 2.89 µM (inactive)

Q: What about the GI50 (MDA-N) of the same compound?
A: 1.75 µM (inactive)

Q: What about the GI50 (HOP-62) of the same compound?
A: 5.32 µM (inactive)

Q: What about the GI50 (NCI-H23) of the same compound?
A: 1.73 µM (inactive)

Q: And the GI50 (SF-268)?
A: 4 µM (inactive)

Q: What about the GI50 (HCC 2998) of the same compound?
A: 1.71 µM (inactive)

Q: What about the GI50 (OVCAR-5) of the same compound?
A: 4.63 µM (inactive)

Q: What about the GI50 (A549) of the same compound?
A: 2.3 µM (inactive)

Q: And the GI50 (BT-549)?
A: 2.02 µM (inactive)

Q: And the GI50 (SNB-78)?
A: 13 µM (inactive)

Q: What about the GI50 (OVCAR-8) of the same compound?
A: 2.03 µM (inactive)

Q: What about the GI50 (PC-3) of the same compound?
A: 1.69 µM (inactive)

Q: What does the source list for CN(C)C(=O)Oc1c(-c2ccccc2)c(=O)n2c3ccccc3n3c(=O)n(C)c(=O)c1c23?
A: GI50 (HOP-18): > 100 µM (inactive); GI50 (EKVX): > 100 µM (inactive); GI50 (MOLT-4): > 100 µM (inactive); GI50 (XF498): > 100 µM (inactive); GI50 (DMS-114): > 100 µM (inactive); GI50 (Malme-3M): > 100 µM (inactive); GI50 (OVCAR-4): > 100 µM (inactive); GI50 (CAKI-1): > 100 µM (inactive); GI50 (UACC-62): > 100 µM (inactive); GI50 (SK-MEL-28): > 100 µM (inactive); GI50 (UACC-257): > 100 µM (inactive); GI50 (LXFL 529): > 100 µM (inactive); GI50 (IGROV-1): > 100 µM (inactive); GI50 (LOX IMVI): > 100 µM (inactive); GI50 (SK-MEL-2): > 100 µM (inactive); GI50 (SNB-75): 72.3 µM (inactive); GI50 (HCT-15): > 100 µM; GI50 (RXF 631): > 100 µM (inactive); GI50 (SW-620): > 100 µM (inactive); GI50 (DMS-273): > 100 µM (inactive); GI50 (HT-29): > 100 µM (inactive); GI50 (HCT-116): > 100 µM (inactive); GI50 (RXF 393): > 100 µM (inactive); GI50 (NCI-H460): > 100 µM (inactive); GI50 (SNB-19): > 100 µM (inactive); GI50 (SK-MEL-5): > 100 µM (inactive); GI50 (DLD-1): > 100 µM (inactive); GI50 (SF-539): > 100 µM (inactive); GI50 (U-251): > 100 µM (inactive); GI50 (COLO 205): > 100 µM (inactive); GI50 (OVCAR-3): > 100 µM (inactive); GI50 (M14): > 100 µM (inactive); GI50 (786-0): > 100 µM (inactive); GI50 (UO-31): > 100 µM (inactive); GI50 (ACHN): > 100 µM (inactive); GI50 (M19-MEL): > 100 µM (inactive); GI50 (SF-295): > 100 µM (inactive); GI50 (TK-10): > 100 µM (inactive); GI50 (HOP-92): > 100 µM (inactive); GI50 (RPMI-8226): > 100 µM (inactive); GI50 (A498): > 100 µM (inactive); GI50 (SR): > 100 µM (inactive); GI50 (KM12): > 10 µM (inactive); GI50 (SK-OV-3): > 100 µM (inactive); GI50 (SN12C): > 100 µM (inactive); GI50 (HOP-62): > 100 µM (inactive); GI50 (NCI-H23): > 100 µM (inactive); GI50 (SF-268): > 100 µM (inactive); GI50 (HCC 2998): > 100 µM (inactive); GI50 (OVCAR-5): > 100 µM (inactive); GI50 (A549): > 100 µM (inactive); GI50 (SNB-78): > 100 µM (inactive); GI50 (OVCAR-8): > 100 µM (inactive)
